Entries after “also recorded” stand apart in the source; their conditions may differ. Starred links: 1 amine or outer side, 2 acyl side, 3 side chain; linkers in the order of their positions; H or OH if unused. Positions of bridges follow the written chain, without caps; N, C: chain ends. Non-standard residues stand in square brackets, D forms with d. Residues, ends and D or L forms follow the SMILES beside them. Chains are numbered I, II in the order given. Actinocin(9to1) = Cc1c2oc3c(C)ccc(C(=O)[*:1])c3nc-2c(C(=O)[*:2])c(N)c1=O; NMeV = CN[C@H](C(=O)O)C(C)C; Sar = CNCC(=O)O

Test [1] relates to MEPCE. As to the kind of experiment: MEPCE expression after treatment with CDK9 / transcription elongation inhibitors (FIG. 3). It counts as cell-based.
The test system of another test is MCL1 protein. As to the kind of experiment: Western blot of anti-apoptotic and pro-apoptotic family members (FIG. 5). It counts as cell-based. Conditions: lung cancer cell line. Here is the method: After treatment with a CDKI, cells were lysed in modified RIPA buffer containing 50 mM TRIS pH 7.4, 150 mM NaCl, 1 mM EDTA, 1% Brij-35, 0.1% deoxycholate, protease inhibitors (Roche Molecular Biochemicals, Mannheim, Germany). SDS-PAGE (4-12% gel) was used to resolve the proteins in the lysate. After electrophoresis, the proteins were electrotransferred onto a polyvinylidene fluoride microporous membrane and immunodetected using standard procedures. FIG. 4 is a Western blot of the multiple myeloma line NCI-H929, treated with CDKI(7) or DMSO and gene expression analyzed at certain time points during the treatment. […] Thus, the reduction in expression of genes in response to CDKI seen at the mRNA level by microarray is confirmed at the protein level by Western blotting.
FIG. 5 is a Western blot comparing the reduction of expression of anti-apoptotic and pro-apoptotic family members after treatment with CDKI(8).
A general note: In western blotting, separated proteins are transferred to a membrane and probed.

The test system of test [2] is MEPCE. Briefly: Dog toxicology study, TaqMan mRNA in white blood cells after CDKI(12): MEPCE. Format: in vivo. The protocol: (§1) As part of a dog toxicology study, the pharmacodynamic markers MEPCE, MYC and MCL1 were measured by TaqMan® in white blood cells at various time points after CDKI(12) treatment.
The study had three groups of three dogs each. Dogs in Group 1 (#1001, #1002, and #1003) were treated with vehicle, dogs in Group 3 (#3001, #3002, and #3003) were treated with CDKI(12) at 0.1 mg/kg and dogs in Group 5 (#5001, #5002, and #5003) were treated with CDKI(12) at 0.15 mg/kg. Samples were collected before treatment 0 hour timepoint; 4 hours, 8 hours and 24 hours after treatment, for a total of 12 samples per group. Blood samples were received frozen in QIAGEN RNAprotect® Animal Blood tubes (Cat. #76554). RNA samples were extracted using the QIAGEN RNeasy® Protect Animal Blood kit (Cat. #73224). RNA samples were quantified using the RNA Quant-iT RNA assay® from Invitrogen (Cat. #Q32852) and read on an Invitrogen Qubit fluorometer (Cat. #Q32857). First strand cDNA synthesis was performed on 500 ng of RNA in a reaction volume of 20 μl using a High Capacity cDNA Reverse Transcription Kit from Applied Biosystems (Cat. #4368814). The cDNA samples were then diluted to 2 ng/μl (10 ng in 5 μl in each reaction). Each TaqMan® reaction contained: 5 μl of cDNA, 1.25 μl of each probe (18S rRNA and gene of interest), 5 μl of water and 12.5 μl of TaqMan® Gene Expression Master Mix from Applied Biosystems (Cat. #4369016) for a total volume of 25 μl. TaqMan® reactions were run in triplicates on an ABI 7500® machine. The 18S rRNA level was used as an endogenous control to correct for variations in cDNA input. The relative quantification method was used to analyze the data; this method uses one sample as a calibrator sample and express mRNA levels relative to that sample. The results are expressed as RQ values (Relative Quantification) with RQ Min and RQ Max values determining a 95% confidence interval for the RQ value. The samples were grouped according to treatment and time point and data from three dogs, each measured in triplicate, were averaged. The vehicle group at 0 hour timepoint was used as the calibrator sample thus allowing us to measure changes in mRNA levels in response to the test article at various time points. The logarithm of the RQ values are plotted so that increases or decreases from the initial value can be more easily represented; on a logarithmic scale a 10-fold increase or 10-fold decrease in RQ value are represented as +1 and −1 respectively.
We have previously shown that the MEPCE mRNA is particularly sensitive to CDK9 inhibition and any CDKI (see Examples above). […] The mRNA levels were determined by TaqMan® using the relative quantification method. The calibrator sample is vehicle at 0 hour timepoint. […]

A further test has as its system MYC. Briefly: Dog toxicology study, TaqMan mRNA in white blood cells after CDKI(12): MYC. Format: in vivo. Conditions: any of the tested doses (0.1, 0.15 mg/kg), FIG. 10. The protocol:
as §1
(§2) The study had three groups of three dogs each. Dogs in Group 1 (#1001, #1002, and #1003) were treated with vehicle, dogs in Group 3 (#3001, #3002, and #3003) were treated with CDKI(12) at 0.1 mg/kg and dogs in Group 5 (#5001, #5002, and #5003) were treated with CDKI(12) at 0.15 mg/kg. Samples were collected before treatment 0 hour timepoint; 4 hours, 8 hours and 24 hours after treatment, for a total of 12 samples per group. Blood samples were received frozen in QIAGEN RNAprotect® Animal Blood tubes (Cat. #76554). RNA samples were extracted using the QIAGEN RNeasy® Protect Animal Blood kit (Cat. #73224). RNA samples were quantified using the RNA Quant-iT RNA assay® from Invitrogen (Cat. #Q32852) and read on an Invitrogen Qubit fluorometer (Cat. #Q32857). […] The relative quantification method was used to analyze the data; this method uses one sample as a calibrator sample and express mRNA levels relative to that sample. The results are expressed as RQ values (Relative Quantification) with RQ Min and RQ Max values determining a 95% confidence interval for the RQ value. The samples were grouped according to treatment and time point and data from three dogs, each measured in triplicate, were averaged. […]

The next test relates to MCL1. Briefly: Dog toxicology study, TaqMan mRNA in white blood cells after CDKI(12): MCL1. It counts as in vivo. The note with it: any of the tested doses (0.1, 0.15 mg/kg), two probes, FIG. 11. Here is the method:
as §1, §2
For orientation: In qPCR the cycle at which signal appears reflects the starting amount.

`N[C@H]1CC[C@H](Nc2cc(-c3cccc(NCc4cccc(F)c4)n3)c(Cl)cn2)CC1` [CDKI(8)]: the MEPCE expression result in the test on MEPCE [1] is “reduced”. Further, the entries for the “expression of MCL1 protein” value in the test with MCL1 protein (2 hours after treatment) and in the test with MCL1 protein (after 16 hour exposure) were “reduced” and “further reduced”, respectively.

As to `Cc1c2oc3c(C)ccc(C(=O)N[C@@H]4C(=O)N[C@H](C(C)C)C(=O)N5CCC[C@H]5C(=O)N(C)CC(=O)N(C)[C@@H](C(C)C)C(=O)O[C@@H]4C)c3nc-2c(C(=O)N[C@@H]2C(=O)N[C@H](C(C)C)C(=O)N3CCC[C@H]3C(=O)N(C)CC(=O)N(C)[C@@H](C(C)C)C(=O)O[C@@H]2C)c(N)c1=O` [Actinomycin D, reference compound] (I: T[dV]P[Sar][NMeV] / II: T[dV]P[Sar][NMeV]; ester I:1-I:C, II:1-II:C; linker I:N-II:N via Actinocin(9to1)), the MEPCE expression result in the test on MEPCE [1] is “reduces the expression of MEPCE”.

As for `COC[C@@H](C)N[C@H]1CC[C@H](Nc2cc(-c3cccc(NCC4(C#N)CCOCC4)n3)c(Cl)cn2)CC1` [CDKI(12)], the “MEPCE mRNA regulation” value in the test with MEPCE [2] (0.1 mg/kg, FIG. 9, 0.1 mg/kg) is on record as “less down regulation; also recorded: clear down regulation”; in the test on MEPCE [2] (0.15 mg/kg, FIG. 9), “clear down regulation”. Besides, the “MEPCE mRNA level at 4 and 8 hours” value with MEPCE [2] (0.15 mg/kg, 4 and 8 hours) is recorded as “reduced”. In addition, the “MEPCE mRNA level by 24 hours” value in the test with MEPCE [2] (0.15 mg/kg, 24 hours) is given as “returns to pretreatment levels”. In the test on MYC, the “MYC mRNA regulation” value is recorded as “does not show any significant down regulation; also recorded: not significantly down regulated”. Further, the “MCL1 mRNA regulation” value in the test on MCL1 is listed as “does not show any significant down regulation; also recorded: not significantly down regulated”.

Values taken from patent publication US20140005070A1, “MARKERS ASSOCIATED WITH CYCLIN-DEPENDENT KINASE INHIBITORS” (Novartis AG, priority 2011, published 2014).
